Reference: US20210348164A1, “ENDOGENOUS CYTOPLASMIC ALU COMPLEMENTARY DNA IN AGE-RELATED MACULAR DEGENERATION” (University of Virginia Patent Foundation, priority 2018, published 2021)
Entries after “also recorded” stand apart in the source; their conditions may differ.

Legend:
[1] = test system: Alu cDNA in primary human RPE cells; assay: Alu cDNA in primary human RPE cells (Alu c-PCR, real-time PCR, in situ hybridization, equator blotting); assay type: cell-based; conditions: primary human RPE cells exposed to Alu RNA, heat shock, or DICER1 AS; NNRTIs at high doses
Protocol: Cell culture and transfection. Primary mouse and human RPE cells were isolated as previously described (Kerur et al., 2018). All cells were maintained at 37° C. in a 5% CO2 environment. Mouse RPE cells were cultured in DMEM supplemented with 20% FBS and penicillin/streptomycin antibiotics at standard concentrations; primary human RPE cells were maintained in DMEM supplemented with 10% FBS and antibiotics. The human RPE cell line ARPE19 was cultured as previously described (Kerur et al., 2018) and maintained in DMEM-F12 containing penicillin/streptomycin, Fungizone, and gentamicin. HEK293T cells were cultured in DMEM with 10% fetal bovine serum (FBS) with 100 U/ml penicillin/streptomycin and 2 mM L-glutamine. Primary wild-type mouse bone marrow-derived macrophages (BMDMs) were isolated, and cultured in Iscove's Modified Dulbecco's Medium (IMDM) supplemented with 30% L929 supernatant containing macrophage-stimulating factor, nonessential amino acids, sodium pyruvate, 10% FBS and antibiotics, 50 μM β-mercaptoethanol (Seo et al., 2015), and serum starved in IMDM with 1% FBS and 100 U/ml penicillin/streptomycin overnight prior to LPS stimulation. NRTIs or NNRTIs were added 30 minutes prior to LPS stimulation and again 30 minutes prior to ATP activation. LPS (100 ng/mL) was added for 3-4 hours prior to the addition of ATP. Cell lysates were collected 30 minutes after addition of ATP (5 mM). Primary human subcutaneous pre-adipocytes (Catalogue No. PCS-210-010, ATCC, Manassas, Va., United States of America) and primary human dermal fibroblasts (Catalogue No. PCS-201-012, ATCC) were grown in fibroblast basal medium with fibroblast growth kit for low serum (ATCC).
Umbilical artery vascular smooth muscle cells (Catalogue No. CC-2579, Lonza, Morristown, N.J., United States of America) were grown in SMGM™-2 Smooth Muscle Growth Medium-2 BULLETKIT™ (Lonza). Primary human skeletal myoblasts (Catalogue No. A11440, Thermo Fisher Scientific) were grown in DMEM with 2% horse serum. Primary human epidermal keratinocytes (Catalogue NO. CO215C, Thermo Fisher Scientific) were grown in EPILIFE® Medium (Thermo Fisher Scientific). Human umbilical vein endothelial cells (HUVEC) were grown in HUVEC EGM™-2 Media (Lonza). Primary human peripheral blood mononuclear cells (Catalogue NO. PCS-800-011, ATCC) were directly used without culture for experiments. RPMI 1640 medium with 10% human serum with human GM-CSF (Miltenyi Biotec Inc., Auburn, Calif., United States of America) was used as media during the experiment. Transfections were performed according to the manufacturer's instructions (LIPOFECTAMINE® 2000, Invitrogen). For transfection of primary human peripheral blood mononuclear cells, HiPerFect Transfection Reagent (Qiagen) was used as previously described (Troegeler et al., 2014). NRTIs were administered 60 minutes before transfection and added again upon replacement of media at 8 hours. To induce acid injury or osmotic stress, primary human RPE cells were treated with HCl (pH 4.0 media) or H2O for 30 minutes, 1 hour, and 2 hours at 37° C. in 5% CO2, respectively. NIH3T3 Tet-ON cells were cultured in DMEM with 10% tetracycline-free fetal bovine serum (FBS) with 100 U/ml penicillin/streptomycin. NIH3T3 Tet-ON cells were transfected with pLD401 (see Taylor et al., 2013; gift of J. D. Boeke, Institute for Systems Genetics, NYU Langone Health, New York, New York, United States of America) and human L1 ORF1p abundance was monitored after 24 hours of doxycycline induction. […]

[2] = test system: Alu RNA-induced RPE degeneration; assay: Alu RNA-induced RPE degeneration in wild-type mice (fundus photography, ZO-1 flat mounts); assay type: in vivo, mouse; conditions: WT mice; intravitreous; low (25 μmol) doses

Compound | Alu cDNA induction [1] | Alu RNA-induced RPE degeneration [2]
CC(C)Nc1cccnc1N1CCN(C(=O)c2cc3cc(NS(C)(=O)=O)ccc3[nH]2)CC1 [DLV, delavirdine] | prevented Alu cDNA synthesis; also recorded: reduced | did not block Alu RNA-induced RPE degeneration at low doses
O=C1Nc2ccc(Cl)cc2[C@@](C#CC2CC2)(C(F)(F)F)O1 [EFV, efavirenz] | prevented Alu cDNA synthesis; also recorded: reduced | did not block Alu RNA-induced RPE degeneration at low doses
Cc1ccnc2c1NC(=O)c1cccnc1N2C1CC1 [NVP, nevirapine] | did not prevent Alu cDNA synthesis | did not prevent Alu RNA-induced RPE degeneration at low or high doses
L1 siRNA: siRNA targeting L1; cholesterol-conjugated mouse L1 siRNA (SEQ ID NOs: 48 and 49) in vivo, human L1 siRNA sequences in human cells (chain 1 ACUAUUACUCUGAUACCTT; chain 2 UGUACUAAGGUCAAAUCTT; cholesterol conjugated, position not given here) | prevented the production of Alu cDNA; also recorded: reduced | 
